Assay results as given in US20060210611A1, “Fat soluble vitamin feed supplements and processes for delivering same” (priority 2003, published 2006).
Where two headings read alike, the source gives them in different places.

Columns and labels:
[1] = per 1 mg; cited from earlier work
[2] = Dietary vitamin E regimens and final longissimus muscle α-tocopherol (AT) concentration (Arnold); assay type: in vivo, cattle
Description: For example, Arnold compared several dietary vitamin E regimens and their resultant final tissue concentration of α-tocopherol (AT). Comparing the results to baseline control and assuming AT accretion in longissimus muscle is linear over time, approximate rates of AT accretion are calculated for various E regimens. Because AT rise is likely logarithmic (See e.g., Arnold et al., J. Anim. Sci. 71:105-118. (1993)), these calculated rates are conservative estimates, especially for feeding periods exceeding 150 days.

[3] = AT accretion in RCDM neck muscle at 1,000 IU vitamin E/hd/day (McClure); assay type: in vivo, Bos indicus crosses; settings: 1000 IU/hd/day (McClure), 25-125 days fed
Description: McClure (FIG. 1) tested the rate of accretion in Bos indicus crosses when fed 1,000 IU of Vitamin E/hd/day. Groups of cattle were slaughtered at 25-day intervals, and neck muscles obtained for tissue AT analysis. Because the controls were already receiving 200 IU E/day, initial AT concentrations were above 3.5. However, RCDM (rectus capitis dorsalis major) AT concentration rose in a logarithmic fashion, eventually reaching a plateau of 9.3 μg/gm. (McClure et al., Determination of Appropriate Vitamin E Supplementation Levels and Administration Times to Ensure Adequate Muscle Tissue Alpha-Tocopherol Concentrations in Cattle Destined for the Nolan Ryan Tender-Aged Beef (NRTAAB) Program, Animal Sciences Report (2002)).

[4] = Calculated average AT accretion rates in longissimus muscle (Arnold and McClure combined); assay type: in vivo, cattle
Source text: Combining the results from Arnold and McClure, and bearing in mind that various muscles accrete AT at different rates (sirloin>inside round>RCDM>strip loin; Roeber et al., Effects of Three Levels of α-Tocopherol Acetate Supplementation to Feedlot Cattle on Performance of Beef Cuts (2001)), average accretion rates for AT in longissimus muscle can be calculated: […]

[5] = cited from earlier work
[6] = cited from earlier work; remark: listed apart in the source
[7] = 360 IU/hd/day, 211-252 days fed
[8] = 1280 IU/hd/day, 211-252 days fed
[9] = 2080 IU/hd/day, 196-266 days fed
[10] = 3520 IU/hd/day, 196-266 days fed

Cc1c(C)c2c(c(C)c1O)CCC(C)(CCCC(C)CCCC(C)CCCC(C)C)O2 (racemic) [all-rac-α-tocopherol]
specific activity [1]: 1.10 IU per milligram

Vitamin E
Calculated Rise in AT per 50 days ([2]; 300 IU/hd/day, 231-309 days fed, vs control baseline, linear accretion assumed): 0.52 μg/gm/50 days
Calculated Rise in AT per 50 days [2, 7]: 0.64 μg/gm/50 days
Calculated Rise in AT per 50 days ([2]; 1140 IU/hd/day, 67 days fed): 3.58 μg/gm/50 days
Calculated Rise in AT per 50 days ([2]; 1200 IU/hd/day, 38 days fed): 2.76 μg/gm/50 days
Calculated Rise in AT per 50 days [2, 8]: 1.28 μg/gm/50 days
Calculated Rise in AT per 50 days [2, 9]: 1.38 μg/gm/50 days
Calculated Rise in AT per 50 days [2, 10]: 1.58 μg/gm/50 days
Calculated Rise in AT per 50 days [3]: 2.6 μg/gm/50 days
AT Accretion ([4]; Vitamin E dose 500 IU/hd/day): 0.75-1.0 μg AT/gm wet muscle/50 days
AT Accretion ([4]; Vitamin E dose 1000+ IU/hd/day): 1.5-3.6 μg AT/gm wet muscle/50 days
AT Accretion ([4]; Vitamin E dose less than 500 IU/hd/day): 0.5-0.6 μg AT/gm wet muscle/50 days
Final Longissimus AT concentration ([5]; 300 IU/hd/day, 231-309 days fed): 3.8 μg/gm wet muscle
Final Longissimus AT concentration [5, 7]: 4.1 μg/gm wet muscle
Final Longissimus AT concentration ([5]; 1140 IU/hd/day, 67 days fed): 6.2 μg/gm wet muscle
Final Longissimus AT concentration ([5]; 1200 IU/hd/day, 38 days fed): 3.5 μg/gm wet muscle
Final Longissimus AT concentration [5, 8]: 6.8 μg/gm wet muscle
Final Longissimus AT concentration [5, 9]: 6.8 μg/gm wet muscle
Final Longissimus AT concentration [5, 10]: 7.6 μg/gm wet muscle
RCDM AT concentration plateau ([6]; 1,000 IU of Vitamin E/hd/day, slaughter at 25-day intervals): 9.3 μg/gm
Final AT concentration (in RCDM muscle) ([6]; 1000 IU/hd/day (McClure), 25-125 days fed): 9.3 μg/gm wet muscle
initial AT concentrations ([6]; controls already receiving 200 IU E/day): above 3.5

Cc1c(C)c2c(c(C)c1O)CC[C@@](C)(CCC[C@H](C)CCC[C@H](C)CCCC(C)C)O2 [RRR-α-tocopherol]
specific activity [1]: 1.49 IU per milligram

CC(=O)Oc1c(C)c(C)c2c(c1C)CC[C@@](C)(CCC[C@H](C)CCC[C@H](C)CCCC(C)C)O2 [RRR-α-tocopherol acetate]
specific activity [1]: 1.36 IU per milligram

CC(=O)Oc1c(C)c(C)c2c(c1C)CCC(C)(CCCC(C)CCCC(C)CCCC(C)C)O2 (racemic) [all-rac-α-tocopherol acetate]
specific activity [1]: 1.00 IU per milligram
